From patent US12528837B2, “Aryl substituted polymyxin derivatives” (priority 2018, dated 2026)
Converted amounts (≈) assume the structure as drawn. Where two headings read alike, the source gives them in different places. Where a SMILES comes first, the peptide text is derived from it. Bridges are numbered along the chain shown (N, C = ends). [ ]: non-standard residue; d: D form. The star is where a group is joined. X21 = NC[C@H](CC(=O)*)c1cc(Cl)cc(Cl)c1; X9 = CC(C)c1cccc([C@H](CN)CC(=O)*)c1; X19 = NC[C@@H](CC(=O)*)c1cccc(Br)c1; X4 = NC[C@@H](CC(=O)*)c1ccc(Cl)cc1; X7 = NC[C@H](CC(=O)*)c1cccc(Cl)c1; dNle = CCCC[C@@H](N)C(=O)O; Dab = NCC[C@H](N)C(=O)O; Abu = CC[C@H](N)C(=O)O; Dap = NC[C@H](N)C(=O)O

How the values were obtained:
HK-2 cells = assay: In vitro renal cell toxicity assay (HK-2); format: cell-based
Description: The in vitro renal cell toxicity assay was performed according to the following protocol. […] Cells were seeded at 7,500 cells per well in 96-well plates and allowed to adhere overnight. […] Water and DMSO levels were kept constant at 5% and 0.5% respectively. The test compounds were incubated with cells for 24 h at 37° C. 5% CO2 in a humidified atmosphere. […] Media only background values were subtracted before the data was analysed using GraphPad Prism. Individual values were normalised to the vehicle control wells for each compound. Compound concentration values were plotted as log values to enable a dose-response curve to be fitted. The bottom of the curve was constrained to zero and IC50 values were determined. IC50 values are expressed relative to that for PMB in the same experiment. Where multiple determinations have been made, median values are presented.

[1] = Kidney drug level after subcutaneous dose in mouse; format: in vivo; details: mouse, in vivo
Description: Four hours after dosing the animals were euthanised and kidneys removed, trimmed of fat and connective tissue, weighed and immediately snap-frozen. After thawing at room temperature, pairs of kidneys from each animal were placed in 2 mL conical tubes containing pre-weighed ceria-stabilised zirconium oxide beads. […] After 10 min. centrifugation at 13,000 rpm and 6° C., 200 μl of the supernatants were transferred into glass inserts and analysed by LC-MS-MS.

E. coli CA58 = format: cell-based
Description: (§1) The inoculum was prepared by making a direct suspension of isolated colonies (selected from an 18-24 hour Mueller-Hinton agar plate) adjusted to the 0.5 McFarland standard. […] The assays were performed in duplicate. […] Several of the compounds were subjected to multiple tests, and where this is the case, the MIC presented is the median value obtained. The MIC values are quoted in μg/mL.

K. pneumoniae CA64 = format: cell-based
Description: as §1

P. aeruginosa CCUG 59347 = format: cell-based
Description: as §1

[2] = test system: A. baumannii ATCC BAA-747; format: cell-based; details: ATCC BAA-747
Description: (§2) The inoculum was prepared by making a direct suspension of isolated colonies (selected from an 18-24 hour Mueller-Hinton agar plate) adjusted to the 0.5 McFarland standard. […] The assays were performed in duplicate. […] The MIC values are quoted in μg/mL.

A. baumannii NCTC 13424 = format: cell-based; details: NCTC 13424
Description: as §2

P. aeruginosa ATCC 27853 = format: cell-based
Description: as §2

E. coli ATCC 25922 = format: cell-based; details: cation-adjusted Mueller-Hinton Broth, 18-20 h, 35° C.
Description: as §2

K. pneumoniae ATCC 13822 = format: cell-based; details: cation-adjusted Mueller-Hinton Broth, 18-20 h, 35° C.
Description: as §2

[3] = cation-adjusted Mueller-Hinton Broth, 18-20 h, 35° C.

Drug Level in Kidney (μg/g kidney, 4 h) ([1]; sc, 17.2 mg/kg) [μg/g kidney] | tissue level at time at 4 h ([1]; sc, 17.2 mg/kg) [ng/g] | MIC E. coli CA58 (E. coli CA58; CA58) [µg/mL] | MIC K. pneumoniae CA64 (K. pneumoniae CA64; CA64) [µg/mL] | MIC P. aeruginosa CCUG 59347 (P. aeruginosa CCUG 59347; CCUG 59347) [µg/mL] | MIC A. baumannii ATCC BAA-747 [2] [µg/mL] | MIC A. baumannii NCTC 13424 (A. baumannii NCTC 13424) [µg/mL] | MIC P. aeruginosa ATCC 27853 (P. aeruginosa ATCC 27853; ATCC 27853) [µg/mL] | Compound | HK-2 rel to PMB (HK-2 cells) | 4 hr kidney level/rel. cytotoxicity [1] | HK-2 rel to PMB (HK-2 cells; IC50 relative to PMB in the same experiment, 24 h) | tissue level at time at 4 h ([1]; mice, 17.2 mg/kg free base sc, 4 h, read-out: 4 hr kidney level) [ng/g] | MIC E. coli CA58 (E. coli CA58; [3]) [µg/mL] | MIC K. pneumoniae CA64 (K. pneumoniae CA64; [3]) [µg/mL] | MIC P. aeruginosa CCUG 59347 (P. aeruginosa CCUG 59347; [3]) [µg/mL] | MIC E. coli ATCC 25922 (E. coli ATCC 25922) [µg/mL] | MIC K. pneumoniae ATCC 13822 (K. pneumoniae ATCC 13822) [µg/mL] | MIC P. aeruginosa ATCC 27853 (P. aeruginosa ATCC 27853; [3]) [µg/mL]
268 | 267000 | 4 (≈ 3.49 µM) | 8 (≈ 6.99 µM) | 0.25 (≈ 0.218 µM) | 0.06 (≈ 0.0524 µM) | 0.06 (≈ 0.0524 µM) | 0.06 (≈ 0.0524 µM) | CC(C)C[C@@H]1NC(=O)[C@@H](Cc2ccccc2)NC(=O)[C@H](CCN)NC(=O)[C@@H](NC(=O)[C@H](CN)NC(=O)[C@@H](NC(=O)C[C@H](CN)c2ccc(Cl)cc2)[C@@H](C)O)CCNC(=O)[C@H]([C@@H](C)O)NC(=O)[C@H](CCN)NC(=O)[C@H](CCN)NC1=O [Example 1, (S)-4-amino-3-(4- chlorophenyl) butanoyl- Thr- Dap-Cyclo[Dab- Dab-DPhe-Leu-Dab- Dab-Thr]] (X4-T[Dap][Dab][Dab][dF]L[Dab][Dab]T; lactam 3-C) | 8.8 | 30 | – | – | – | – | – | – | – | –
– | – | 8 (≈ 6.99 µM) | 8 (≈ 6.99 µM) | 0.5 (≈ 0.437 µM) | 0.5 (≈ 0.437 µM) | 0.5 (≈ 0.437 µM) | – | CC(C)C[C@@H]1NC(=O)[C@@H](Cc2ccccc2)NC(=O)[C@H](CCN)NC(=O)[C@@H](NC(=O)[C@H](CN)NC(=O)[C@@H](NC(=O)C[C@@H](CN)c2cccc(Cl)c2)[C@@H](C)O)CCNC(=O)[C@H]([C@@H](C)O)NC(=O)[C@H](CCN)NC(=O)[C@H](CCN)NC1=O [Example 6, (R)-4-amino-3-(3- chlorophenyl) butanoyl- Thr-Dap-Cyclo[Dab- Dab-DPhe-Leu-Dab- Dab-Thr]] (X7-T[Dap][Dab][Dab][dF]L[Dab][Dab]T; lactam 3-C) | 7.8 | 49 | – | – | – | – | – | – | – | –
– | – | – | – | – | – | – | – | CC[C@@H]1NC(=O)[C@@H](Cc2ccccc2)NC(=O)[C@H](CCN)NC(=O)[C@@H](NC(=O)[C@H](CN)NC(=O)[C@@H](NC(=O)C[C@@H](CN)c2cccc(C(C)C)c2)[C@@H](C)O)CCNC(=O)[C@H]([C@@H](C)O)NC(=O)[C@H](CCN)NC(=O)[C@H](CCN)NC1=O [Example 18] (X9-T[Dap][Dab][Dab][dF][Abu][Dab][Dab]T; lactam 3-C) | – | – | 32.8 | 535000 | 16 (≈ 14.2 µM) | 8 (≈ 7.12 µM) | 0.25 (≈ 0.222 µM) | 0.25 (≈ 0.222 µM) | 0.25 (≈ 0.222 µM) | 0.25 (≈ 0.222 µM)
– | – | – | – | – | – | – | – | CCCC[C@H]1NC(=O)[C@H](CCN)NC(=O)[C@@H](NC(=O)[C@H](CN)NC(=O)[C@@H](NC(=O)C[C@@H](CN)c2cc(Cl)cc(Cl)c2)[C@@H](C)O)CCNC(=O)[C@H]([C@@H](C)O)NC(=O)[C@H](CCN)NC(=O)[C@H](CCN)NC(=O)[C@H](CC)NC1=O [Example 29, (R)-4-amino-3-(3,5- dichlorophenyl)butanoyl- Thr-Dap- Cyclo[Dab-Dab- DnorLeu-Abu-Dab- Dab-Thr]] (X21-T[Dap][Dab][Dab][dNle][Abu][Dab][Dab]T; lactam 3-C) | – | – | – | – | 16 (≈ 14.3 µM) | 8 (≈ 7.16 µM) | 0.5 (≈ 0.448 µM) | 0.25 (≈ 0.224 µM) | 0.25 (≈ 0.224 µM) | 0.25 (≈ 0.224 µM)
– | – | – | – | – | – | – | – | CC[C@@H]1NC(=O)[C@@H](CC(C)C)NC(=O)[C@H](CCN)NC(=O)[C@@H](NC(=O)[C@H](CN)NC(=O)[C@@H](NC(=O)C[C@H](CN)c2cccc(Br)c2)[C@@H](C)O)CCNC(=O)[C@H]([C@@H](C)O)NC(=O)[C@H](CCN)NC(=O)[C@H](CCN)NC1=O [Example 32, (S)-4-amino-3-(3- bromophenyl)butanoyl- Thr-Dap-Cyclo[Dab- Dab-DLeu-Abu-Dab- Dab-Thr]] (X19-T[Dap][Dab][Dab][dL][Abu][Dab][Dab]T; lactam 3-C) | – | – | – | – | 32 (≈ 28.4 µM) | 32 (≈ 28.4 µM) | 0.5 (≈ 0.444 µM) | 0.25 (≈ 0.222 µM) | 0.5 (≈ 0.444 µM) | 0.5 (≈ 0.444 µM)
